How the values were obtained:
F508delCFTR = biological target: T1, F508delCFTR (Homo sapiens, UniProt P13569, DEL508-508); assay: Cell Surface Expression-Horse Radish Peroxidase (CSE-HRP) assay; type: cell-based; conditions: CFBE41o-F508delCFTR-HRP cells; for EC50: cell surface expression, luminescence readout, 18-24 hours at 33° C., highest concentration tested 20 μM, 8-point curve; for Maximum % activity: maximum at any tested concentration, normalized to on-plate positive control (3 μM) and DMSO
T1 construct: expressed in transfected cells; host or cells: CFBE41o- (CFBE41o-F508delCFTR-HRP), doxycycline-inducible
Summary of the method: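 CFBE41o- cells expressing F508delCFTR with HRP in the fourth extracellular loop were doxycycline-induced (0.5 μg/mL) for 72 h at 37 °C, then treated 18-24 h at 33 °C with an 8-point 3-fold series from 20 μM. Surface HRP luminescence (luminol) was normalized to DMSO and positive control; EC50 came from variable-slope sigmoidal fits of triplicate plates.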

F508del/F508del CFTR = biological target: T2, F508del/F508del CFTR (Homo sapiens, UniProt P13569, DEL508-508); assay: Transepithelial Clamp Circuit (TECC-24) conductance assay on primary human bronchial epithelial cells; type: cell-based; conditions: primary hBE cells from F508del/F508delCFTR patients; for EC50: equivalent short circuit current (Ieq), correctors 18-24 hours at 37° C., with control potentiator, 6 test concentrations; for Maximum % activity: relative to positive control (3 μM) coupled with control potentiator = 100%
T2 construct: cells isolated from CF patients with the homozygous mutation; endogenous in cells; host or cells: primary human bronchial epithelial (hBE) cells from F508del/F508del CF patients
Source text: Transepithelial Clamp Circuit on Human Bronchial Epithelial Cells Conductance Assay:
A cell based assay using the primary human bronchial epithelial cells (hBE) was used as a secondary assay to test novel F508delCFTR correctors for their activity on primary hBE cells with F508del/F508del CFTR mutation. The assay used a TECC-24 (Transepithelial Clamp Circuit for 24 wells) instrument that measures the functionality of the mutated channel by measuring the equivalent short circuit current (Ieq) generated by the polarized epithelial cells. The instrument works by measuring the transepithelial potential difference (Vt) and transepithelial resistance (Rt) in an open circuit format, and the Ieq is calculated by using Ohms law (Ieq=Vt/Rt). The assay was run in a 24-well format and all 24-wells were measured at the same time point giving a higher throughput for this assay.
Primary human bronchial epithelial (hBE) cells from F508del/F508delCFTR patients were expanded from 1×10^6 to 250×10^6 cells (Neuberger T, Burton B, Clark H and VanGoor F; Cystic Fibrosis, Methods in Mole Biol 741; eds. Amaral M D and Kunzelmann K, 2011). For this purpose, cells isolated from CF patients with the homozygous mutation were seeded onto 24 well Corning (Cat #3378) filter plates that were coated with 3T3 conditioned media and grown at an air-liquid interface for 35 days using an Ultroser® G supplemented differentiation media. Apical surface mucus was removed 72 hours before the experiment using 3 mM dithiothreitol (DTT) in phosphate buffered saline (PBS). The apical surface was washed again 24 hours before the experiment using PBS. The cells were incubated with the desired dose response of the corrector compounds 18-24 hours at 37° C., 5% CO2. The corrector compounds are only added on the basolateral side of the epithelial cells.
On the day of measuring the corrector activity on the TECC, the cells were switched into a bicarbonate and serum free F-12 Coon's medium and allowed to equilibrate for 90 minutes in a CO2 free incubator. At the time of measurement, the apical and basolateral sides of the filter were bathed with the F-12 Coon's modification media (with 20 mM 4-(2-hydroxyethyl)-1-piperazineethanesulfonic acid (HEPES), pH 7.4 (using 1 M tris(hydroxymethyl)aminomethane (Tris)), and the measurements were made at 36.5° C. Transepithelial voltage (Vt) and transepithelial resistance (Rt) were measured using a 24 channel transepithelial current clamp (TECC-24). Current responses to the sequential addition of benzamil (apical 6 M addition; for inhibiting epithelial ENaC channel), forskolin (apical and basolateral 10 M addition; for activating the CFTR channel), control potentiator (N-(3-carbamoyl-5,5,7,7-tetramethyl-4,7-dihydro-5H-thieno[2,3-c]pyran-2-yl)-1H-pyrazole-5-carboxamide; apical and basolateral 1 M addition; for potentiating the CFTR channel) and bumetanide (basolateral 20 μM addition; for inhibiting the Na:2Cl:K co-transporter, an indirect measure of inhibiting the Cl-secretion driven by CFTR channel) were measured.
All plates contained negative controls (dimethyl sulfoxide, DMSO) which coupled with the control potentiator (N-(3-carbamoyl-5,5,7,7-tetramethyl-4,7-dihydro-5H-thieno[2,3-c]pyran-2-yl)-1H-pyrazole-5-carboxamide) sets the null response and positive controls (3 μM of 3-[(2R,4R)-4-({[1-(2,2-difluoro-1,3-benzodioxol-5-yl)cyclopropyl]carbonyl}amino)-7-methoxy-3,4-dihydro-2H-chromen-2-yl]benzoic acid) coupled with the control potentiator sets the 100% response to measure the correction of the mutated CFTR channel. The maximum percent activity is reported relative to the positive control value.
The % activity measured at each of the 6 test concentrations of the test compound was normalized to the on-plate positive control using the following formula: % activity=[(test compound response−DMSO response)/(positive control response−DMSO response)]*100 […]

T1 sequence (P13569 with tags, fused parts or gaps DEL508-508): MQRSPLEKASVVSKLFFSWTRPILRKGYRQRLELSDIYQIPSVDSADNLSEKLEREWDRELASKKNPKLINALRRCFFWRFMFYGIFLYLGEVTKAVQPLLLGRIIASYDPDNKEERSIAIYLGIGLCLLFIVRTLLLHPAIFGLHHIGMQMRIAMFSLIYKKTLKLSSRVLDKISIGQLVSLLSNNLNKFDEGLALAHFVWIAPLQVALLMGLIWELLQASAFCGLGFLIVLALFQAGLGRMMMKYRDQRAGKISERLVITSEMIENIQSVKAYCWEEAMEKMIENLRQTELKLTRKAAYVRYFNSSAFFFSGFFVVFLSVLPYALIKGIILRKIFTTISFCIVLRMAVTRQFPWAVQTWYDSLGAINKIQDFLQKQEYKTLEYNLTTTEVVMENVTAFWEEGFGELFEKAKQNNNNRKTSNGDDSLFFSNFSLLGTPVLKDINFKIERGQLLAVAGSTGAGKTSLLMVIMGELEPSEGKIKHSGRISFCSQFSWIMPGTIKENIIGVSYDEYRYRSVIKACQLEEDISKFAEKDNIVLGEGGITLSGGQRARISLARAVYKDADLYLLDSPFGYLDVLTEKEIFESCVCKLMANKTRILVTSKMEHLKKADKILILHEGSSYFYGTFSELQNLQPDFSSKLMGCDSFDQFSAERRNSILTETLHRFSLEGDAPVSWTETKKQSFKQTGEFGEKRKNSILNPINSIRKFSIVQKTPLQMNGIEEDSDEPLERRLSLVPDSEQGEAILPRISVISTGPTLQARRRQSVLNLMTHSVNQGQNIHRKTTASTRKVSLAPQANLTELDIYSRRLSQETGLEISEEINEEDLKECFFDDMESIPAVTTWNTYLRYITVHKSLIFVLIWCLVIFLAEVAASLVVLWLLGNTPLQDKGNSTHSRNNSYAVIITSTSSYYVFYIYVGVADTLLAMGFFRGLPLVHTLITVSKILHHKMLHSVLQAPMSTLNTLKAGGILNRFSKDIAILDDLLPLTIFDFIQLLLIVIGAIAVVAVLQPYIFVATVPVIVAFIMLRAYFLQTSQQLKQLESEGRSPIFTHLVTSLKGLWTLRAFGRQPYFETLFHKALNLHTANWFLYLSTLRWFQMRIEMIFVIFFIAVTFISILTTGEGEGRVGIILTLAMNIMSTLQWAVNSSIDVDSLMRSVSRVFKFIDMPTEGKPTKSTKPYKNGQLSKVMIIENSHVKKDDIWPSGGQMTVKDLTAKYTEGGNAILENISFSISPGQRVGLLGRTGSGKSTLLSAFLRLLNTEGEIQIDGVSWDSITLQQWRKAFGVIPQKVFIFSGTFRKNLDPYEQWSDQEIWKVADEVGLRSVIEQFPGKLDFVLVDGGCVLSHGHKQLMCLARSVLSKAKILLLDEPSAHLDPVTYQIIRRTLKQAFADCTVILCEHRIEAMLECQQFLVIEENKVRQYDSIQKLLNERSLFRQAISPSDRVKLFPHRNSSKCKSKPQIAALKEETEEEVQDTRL
T2 sequence (P13569 with tags, fused parts or gaps DEL508-508): as above

Compound: O=C(O)c1cccc([C@H]2C[C@@H](NC(=O)C3(c4ccc5c(c4)OC(F)(F)O5)CC3)C[C@@H](c3ccccc3)O2)c1 [Example 27, 3-[(2R,4S,6S)-4-({[1-(2,2-difluoro-1,3-benzodioxol-5-yl)cyclopropyl]carbonyl}amino)-6-phenyltetrahydro-2H-pyran-2-yl]benzoic acid]
- EC50 (F508delCFTR): 280 nM
- Maximum % activity (F508delCFTR): 109%
- EC50 (F508del/F508del CFTR): 100 nM
- Maximum % activity (F508del/F508del CFTR): 94%

Compound: O=C(O)c1ccc([C@H]2C[C@@H](NC(=O)C3(c4ccc5c(c4)OC(F)(F)O5)CC3)CCO2)cc1 [Example 31, 4-[(2R,4S)-4-({[1-(2,2-difluoro-1,3-benzodioxol-5-yl)cyclopropyl]carbonyl}amino)tetrahydro-2H-pyran-2-yl]benzoic acid]
- EC50 (F508delCFTR): 770 nM
- Maximum % activity (F508delCFTR): 102%
- EC50 (F508del/F508del CFTR): 1030 nM
- Maximum % activity (F508del/F508del CFTR): 65%

From patent publication US9567322B2, “Substituted tetrahydropyrans and method of use” (AbbVie S.á.r.l., priority 2014, dated 2017)
